Values quoted from earlier work, collected in US20030195186A1, “Methods of treating medication-, substance-, disease-, and other medical condition-related sexual dysfunction” (priority 2002, published 2003).

Conditions: intrathecal; spinal-cord injured male patients; case reports

In the case of `CN(C)C(=O)Oc1cccc([N+](C)(C)C)c1` [neostigmine], the “assisting patients with anejaculation to obtain ejaculation” value is listed as “being able to obtain ejaculation”.
